This note sets out measurements from ChEMBL document CHEMBL5331095, “Structure-activity relationship and biological evaluation of xanthine derivatives as PCSK9 inhibitors for the treatment of atherosclerosis” (Eur J Med Chem, 2023).

Activity calls are given as the source filed them. The rule behind the calls is not given here.

Data set [1] has as its target Proprotein convertase subtilisin/kexin type 9 (Homo sapiens) (UniProt Q8NBP7). Description: Inhibition of PCSK9 transcriptional activity in human HepG2 cells stably expressing luciferase reporter plasmid containing PCSK9 promoter assessed as decrease in luciferase activity at 10 ug/ml incubated for 24 hrs by Luciferase assay relative to control. The note with it: dose 10.0 µg/ml. It is filed as cell-based. In general terms: Reporter assays use an easily measured gene product as a stand-in for the process of interest.

Data set [2] deals with PCSK9 transcriptional activity. Kind of data set: Therapeutic index, ratio of TC50 for cytotoxicity against human HepG2 cells to IC50 for inhibition of PCSK9 transcriptional activity in human HepG2 cells stably expressing luciferase reporter plasmid containing PCSK9 promoter. It is filed as toxicity, cell-based.
A short description of data set [3]: Acute toxicity in C57BL/6 mouse assessed as lethality upto 1000 mg/kg, IG and measured every day for 1 week. It is filed as organism-based. The following applies: in vivo, po, time 1 weeks.
Data set [4] concerns Mus musculus. Description: Antiatherosclerotic activity in high-fat diet fed ApoE knockout C57BL/6 mouse assessed as decrease in high-fat diet induced increase in body weight at 30 mg/kg, IG for 8 weeks. It is filed as functional, organism-based.
Data set [5] has as its system Mus musculus. Description: Antiatherosclerotic activity in high-fat diet fed ApoE knockout C57BL/6 mouse assessed as decrease in serum total cholesterol level at 30 mg/kg, IG for 8 weeks by lipid profiling assay. It is filed as functional, organism-based.
Data set [6] deals with Mus musculus. Description: Antiatherosclerotic activity in high-fat diet fed ApoE knockout C57BL/6 mouse assessed as decrease in serum triglyceride level at 30 mg/kg, IG for 8 weeks by lipid profiling assay. It is filed as functional, organism-based.
The nature of data set [7]: Cytotoxicity against human HepG2 cells assessed as reduction in cell viability by measuring toxic concentration incubated for 24 hrs by MTT assay. The following applies: read-out: TC50. It is filed as toxicity, cell-based. (Tetrazolium assays rely on reduction of a dye to a coloured formazan, in cell work by metabolically active cells.)
For data set [8], the system named is Mus musculus. Description: In vivo inhibition of PCSK9 in high-fat diet fed ApoE knockout C57BL/6 mouse assessed as decrease in PCSK9 expression in liver at 30 mg/kg, IG for 8 weeks by Western blot analysis. It is filed as functional, organism-based.
The target in data set [9] is Proprotein convertase subtilisin/kexin type 9 (Homo sapiens) (UniProt Q8NBP7). Description: Inhibition of PCSK9 in human HepG2 cells assessed as decrease in PCSK9 protein expression level at 2.5 to 25 uM incubated for 24 hrs by Western blot analysis. The note with it: dose 2.5-25 µM. It is filed as cell-based. (In general: In western blotting, separated proteins are transferred to a membrane and probed.)

The subject of data set [10] is Mus musculus. Kind of data set: In vivo inhibition of PCSK9 in high-fat diet fed ApoE knockout C57BL/6 mouse assessed as decrease in PCSK9 expression in serum at 30 mg/kg, IG for 8 weeks by ELISA. It is filed as functional, organism-based.
Data set [11] in a line: Acute toxicity in C57BL/6 mouse assessed as behavioral change upto 1000 mg/kg, IG and measured every day for 1 week. It is filed as organism-based. The following applies: in vivo, po, 168 h, time 1 weeks.
The target in data set [12] is Proprotein convertase subtilisin/kexin type 9 (Homo sapiens) (UniProt Q8NBP7). Kind of data set: Inhibition of PCSK9 in human HepG2 cells assessed as fold increase in LDL-cholesterol cellular uptake by measuring DiI fluorescence at 25 uM incubated for 24 hrs by Dil-LDL staining based flow cytometry analysis relative to control. It is filed as cell-based.
The nature of data set [13]: Acute toxicity in C57BL/6 mouse assessed as body weight change upto 1000 mg/kg, IG and measured every day for 1 week. It is filed as organism-based. The note with it: in vivo, po, 168 h, time 1 weeks.
Data set [14] addresses Proprotein convertase subtilisin/kexin type 9 (Homo sapiens) (UniProt Q8NBP7). Description: Inhibition of PCSK9 in human HepG2 cells assessed as increase in LDLR protein expression level at 2.5 to 25 uM incubated for 24 hrs by Western blot analysis. It is filed as cell-based. The note with it: dose 2.5-25 µM.
The nature of data set [15]: Acute toxicity in C57BL/6 mouse assessed as survival upto 1000 mg/kg, IG and measured every day for 1 week. It is filed as organism-based. The following applies: in vivo, po, 168 h, time 1 weeks.
In data set [16] the target is Proprotein convertase subtilisin/kexin type 9 (Homo sapiens) (UniProt Q8NBP7). Description: Inhibition of PCSK9 in human HepG2 cells assessed as increase in LDL-cholesterol cellular uptake by measuring DiI fluorescence at 2.5 to 25 uM incubated for 24 hrs by Dil-LDL staining based flow cytometry analysis. It is filed as cell-based. The note with it: dose 2.5-25 µM.

Proprotein convertase subtilisin/kexin type 9 (Homo sapiens), sequence (Q8NBP7 31-152 limits assumed): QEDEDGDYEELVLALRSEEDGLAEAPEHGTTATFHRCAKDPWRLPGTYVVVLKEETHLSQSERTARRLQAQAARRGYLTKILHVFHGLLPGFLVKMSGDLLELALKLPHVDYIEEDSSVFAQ
Proprotein convertase subtilisin/kexin type 9 (Homo sapiens), sequence (Q8NBP7 153-692 limits assumed): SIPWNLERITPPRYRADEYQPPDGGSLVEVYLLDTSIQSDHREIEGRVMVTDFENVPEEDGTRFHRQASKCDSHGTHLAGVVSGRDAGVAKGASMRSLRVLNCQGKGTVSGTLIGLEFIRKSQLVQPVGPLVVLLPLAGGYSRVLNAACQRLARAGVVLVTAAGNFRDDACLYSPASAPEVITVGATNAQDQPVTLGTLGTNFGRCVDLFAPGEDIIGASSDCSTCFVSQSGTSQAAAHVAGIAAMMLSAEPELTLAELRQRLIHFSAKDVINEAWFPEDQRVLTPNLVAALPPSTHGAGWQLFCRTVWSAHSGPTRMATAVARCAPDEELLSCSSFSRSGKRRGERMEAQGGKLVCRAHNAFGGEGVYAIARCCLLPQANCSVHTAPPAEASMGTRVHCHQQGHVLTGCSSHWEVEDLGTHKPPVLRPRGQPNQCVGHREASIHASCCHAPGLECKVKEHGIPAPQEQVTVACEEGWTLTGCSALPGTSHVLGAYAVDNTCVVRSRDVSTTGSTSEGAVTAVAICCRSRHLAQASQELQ

Consider `Cn1c(=O)c2c(nc(NCCO)n2Cc2ccc(F)cc2F)n(C)c1=O`, for which the inhibition (in general, the drop in the measured response relative to a control, in per cent) in data set [1] worked out at 76.1%. In the case of `COc1cccc(Cn2c(NCCCCO)nc3c2c(=O)n(C)c(=O)n3C)c1`, in data set [1], the inhibition worked out at 41.4%.

Consider `COc1cccc(Cn2c(NCCC3CCN(C)C3)nc3c2c(=O)n(C)c(=O)n3C)c1` (configuration not stated), for which, in data set [1], the inhibition was 16.7%.

Regarding `COC(=O)CNc1nc2c(c(=O)n(C)c(=O)n2C)n1Cc1cccc(OC)c1`, the inhibition in data set [1] turned out to be 68.4%.

Take `Cn1c(=O)c2c(nc(NCCO)n2Cc2cc(F)ccc2F)n(C)c1=O`: the inhibition in [1] was 79.9%. With `COc1cccc(Cn2c(N[C@@H](C)CO)nc3c2c(=O)n(C)c(=O)n3C)c1`, in data set [1], the inhibition was 81%.

As for `COc1ccc(Cn2c(NCCO)nc3c2c(=O)n(C)c(=O)n3C)cc1`, the inhibition in data set [1] amounted to 76.5%. As for `COc1cccc(Cn2c(NCCCCCCO)nc3c2c(=O)n(C)c(=O)n3C)c1`, the inhibition in data set [1] was 9%. On the same count and under the same terms, then `Cn1c(=O)c2c(nc(NCCO)n2Cc2cccc(F)c2)n(C)c1=O`, with 92.6%. Turning to `COc1cccc(Cn2c(NCCO)nc3c2c(=O)n(C)c(=O)n3C)c1`, the selectivity ratio in data set [2] came out at 16.8. The inhibition in data set [1] turned out to be 89.8%. Further, the LD50 (commonly the dose at which mortality reaches 50%) at 168 h in data set [3] turned out to be 300 mg/kg. In addition, the result in the data set on Mus musculus [4] was Active. Also, the outcome with Mus musculus [5] and with Mus musculus [6] was inactive. The CC50 at 24 h in data set [7] is 45.5 µM. On to `COc1cccc(Cn2c(NCCCN(C)C)nc3c2c(=O)n(C)c(=O)n3C)c1`, for which, in [1], the inhibition was found to be 2.3%.

For `Cn1c(=O)c2c(nc(NCCO)n2Cc2ccccc2)n(C)c1=O`, the selectivity ratio in data set [2] came out at 23.1. In addition, the inhibition in data set [1] came out at 80.4%. In data set [7], the CC50 at 24 h stood at 85.5 µM. Regarding `COC(=O)CCNc1nc2c(c(=O)n(C)c(=O)n2C)n1Cc1cccc(OC)c1`, in data set [1], the inhibition stood at 41.4%.

Consider `Cn1c(=O)c2c(nc(NCCO)n2Cc2cc(F)cc(F)c2)n(C)c1=O`, for which the inhibition in data set [1] is 43.3%. Regarding `COc1cccc(Cn2c(NCC(N)=O)nc3c2c(=O)n(C)c(=O)n3C)c1`, the inhibition in data set [1] was determined as 59.2%.

Take `CCCn1c(NCCO)nc2c1c(=O)n(C)c(=O)n2C`: the inhibition in data set [1] worked out at 12.1%.

Turning to `COc1cccc(Cn2c(N3CCC(N4CCCC4)CC3)nc3c2c(=O)n(C)c(=O)n3C)c1`, the inhibition in data set [1] was determined as 8.3%. Turning to `Cn1c(=O)c2c(nc(NCCO)n2CC2CCOCC2)n(C)c1=O`, the inhibition in data set [1] was found to be 13.6%. As to `COc1cccc(Cn2c(NC[C@@H](C)O)nc3c2c(=O)n(C)c(=O)n3C)c1`, the selectivity ratio in data set [2] amounted to 22.9. The inhibition in data set [1] was found to be 81.7%. The CC50 at 24 h in data set [7] was found to be 89.2 µM. Turning to `Cn1c(=O)c2c(nc(NCCO)n2Cc2ccccc2[N+](=O)[O-])n(C)c1=O`, the inhibition in data set [1] amounted to 20.2%.

On to `COc1cccc(Cn2c(N[C@@H](CO)C(C)C)nc3c2c(=O)n(C)c(=O)n3C)c1`, for which the inhibition in data set [1] was 18.9%. As for `Cn1c(=O)c2c(nc(NCCO)n2Cc2ccc(F)cc2)n(C)c1=O`, the inhibition in [1] stood at 93.1%.

For `COc1cccc(Cn2c(N3CCCCC3CN3CCCC3)nc3c2c(=O)n(C)c(=O)n3C)c1` (configuration not stated), the inhibition in data set [1] came to 0.8%. Still for that read-out and setting: with `COc1cccc(Cn2c(NCCCO)nc3c2c(=O)n(C)c(=O)n3C)c1` the figure was 60.1%.

In the case of `Cn1c(=O)c2c(nc(NCCO)n2Cc2ccccc2Br)n(C)c1=O`, the inhibition in data set [1] was determined as 53.3%. As to `COc1cccc(Cn2c(N3CCSCC3)nc3c2c(=O)n(C)c(=O)n3C)c1`, the inhibition in [1] came to 17%. As to `COc1cccc(Cn2c(NCCN(C)C)nc3c2c(=O)n(C)c(=O)n3C)c1`, the inhibition in data set [1] was 19.6%. As for `Cn1c(=O)c2c(nc(NCCO)n2Cc2c(F)cccc2F)n(C)c1=O`, in [1], the inhibition was found to be 91%. As to `COc1cccc(Cn2c(NC(CO)CO)nc3c2c(=O)n(C)c(=O)n3C)c1`, the inhibition in data set [1] turned out to be 37%. With `COc1cccc(Cn2c(N3CCOCC3)nc3c2c(=O)n(C)c(=O)n3C)c1`, the inhibition in data set [1] amounted to 16.3%.

On to `Cn1c(=O)c2c(nc(NCCO)n2Cc2cccc(Br)c2)n(C)c1=O`, for which, in [1], the inhibition came out at 34.2%. Still for that read-out and setting: with `COc1cccc(Cn2c(N(C)CCO)nc3c2c(=O)n(C)c(=O)n3C)c1` the figure was 9.4%; with `Cn1c(=O)c2c(nc(NCCO)n2Cc2ccc([N+](=O)[O-])cc2)n(C)c1=O`, 23.3%; with `COc1cc(Cn2c(NCCO)nc3c2c(=O)n(C)c(=O)n3C)cc(OC)c1`, 1.7%.

On to `COc1cccc(Cn2c(Nc3cccc(O)c3)nc3c2c(=O)n(C)c(=O)n3C)c1`, for which the inhibition in [1] is -9.3%.

For the compound `Cn1c(=O)c2c(nc(NCCO)n2Cc2cccc(OC(F)(F)F)c2)n(C)c1=O`, the inhibition in data set [1] is 84.7%. For `Cc1ccccc1Cn1c(NCCO)nc2c1c(=O)n(C)c(=O)n2C`, in data set [1], the inhibition was 88.1%.

Consider `Cn1c(=O)c2c(nc(NCCO)n2Cc2ccc(Cl)cc2)n(C)c1=O`, for which the inhibition in [1] is 47%. Regarding `COc1cccc(Cn2c(NCC(O)CO)nc3c2c(=O)n(C)c(=O)n3C)c1` (configuration not stated), the inhibition in data set [1] amounted to 11.6%. Regarding `COc1cccc(Cn2c(NC[C@H](C)O)nc3c2c(=O)n(C)c(=O)n3C)c1`, in data set [1], the inhibition is 68.9%. The same measure, in the same setting: with `Cn1c(=O)c2c(nc(NCCO)n2CC(=O)c2ccccc2)n(C)c1=O` the figure was 40.8%. On to `Cn1c(=O)c2c(nc(NCCO)n2Cc2cccc(Cl)c2F)n(C)c1=O`, for which the selectivity ratio in data set [2] was above 35.1. Further, the inhibition in [1] was 95.8%; in [9] it was “Dose-Dependent Effect”; in data set [14], “Dose-Dependent Effect”; in data set [16], “Dose-Dependent Effect”. Moreover, in [3], the LD50 at 168 h is above 1000 mg/kg. The result in the data set on Mus musculus [4] was Active. Moreover, in the data set on Mus musculus [8], the inhibition entry was “Active”. In addition, in the data set with Mus musculus [10], the inhibition result was “inactive”. The Activity entry in data set [11], in data set [13] and in data set [15] was “Non-Toxic” each time. Besides, the fold change (FC) in data set [12] stood at 1.7. For the same compound, the outcome in the data set on Mus musculus [5] and in the data set with Mus musculus [6] was inactive. In data set [7], the CC50 at 24 h is above 200 µM. As for `COc1cccc(Cn2c(N3CCC(CCN(C)C)CC3)nc3c2c(=O)n(C)c(=O)n3C)c1`, the inhibition in data set [1] came out at 17.4%.

With `COc1ccc(Cn2c(NCCO)nc3c2c(=O)n(C)c(=O)n3C)cc1OC`, the inhibition in data set [1] came to 16.2%. For the compound `Cn1c(=O)c2c(nc(NCCO)n2Cc2ccc(F)c(C(F)(F)F)c2)n(C)c1=O`, in data set [2], the selectivity ratio was 7.1. Moreover, the inhibition in [1] amounted to 87%. The CC50 at 24 h in [7] turned out to be 55.1 µM.
